Measurements: US20260297060A1, “COMPOUNDS FOR THE DEGRADATION OF MUTANT BRAF” (C4 THERAPEUTICS, INC., priority 2023, published 2026)
Where two headings read alike, the source gives them in different places.

Columns and labels:
A375-NRAS^Q61K cells = experiment: CTGlo Cell Viability Assay, A375-NRAS^Q61K (A375.11) cells, 96 hours; format: cell-based, human; details: Homo sapiens, 96 h, A375.11 (A375-NRAS^Q61K) cells; for Emax: lowest % viability achieved
In short: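 Viability as CellTiter-Glo ATP luminescence after 96 h compound exposure at 37 °C; A375.11 (BRAF V600E/NRAS Q61K) cells at 250/well, top final concentration 10 μM in half-log steps. Signal was background-corrected and set relative to DMSO controls. A 4-parameter logistic fit gave GI50 (50% crossing) and Emax.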

BRAF V600E = target: T1, BRAF V600E (Homo sapiens, UniProt P15056+Q96SW2, V600E); experiment: BRAF V600E HiBiT Degradation Assay; format: cell-based; details: for Emax: residual protein remaining
T1 construct: knock-in of the HiBiT tag to the endogenous BRAF V600E locus; host or cells: A375.10 (A375 clonal line, CRISPR HiBiT knock-in at the endogenous BRAF V600E locus)
T1 sequence (P15056 whole entry V600E): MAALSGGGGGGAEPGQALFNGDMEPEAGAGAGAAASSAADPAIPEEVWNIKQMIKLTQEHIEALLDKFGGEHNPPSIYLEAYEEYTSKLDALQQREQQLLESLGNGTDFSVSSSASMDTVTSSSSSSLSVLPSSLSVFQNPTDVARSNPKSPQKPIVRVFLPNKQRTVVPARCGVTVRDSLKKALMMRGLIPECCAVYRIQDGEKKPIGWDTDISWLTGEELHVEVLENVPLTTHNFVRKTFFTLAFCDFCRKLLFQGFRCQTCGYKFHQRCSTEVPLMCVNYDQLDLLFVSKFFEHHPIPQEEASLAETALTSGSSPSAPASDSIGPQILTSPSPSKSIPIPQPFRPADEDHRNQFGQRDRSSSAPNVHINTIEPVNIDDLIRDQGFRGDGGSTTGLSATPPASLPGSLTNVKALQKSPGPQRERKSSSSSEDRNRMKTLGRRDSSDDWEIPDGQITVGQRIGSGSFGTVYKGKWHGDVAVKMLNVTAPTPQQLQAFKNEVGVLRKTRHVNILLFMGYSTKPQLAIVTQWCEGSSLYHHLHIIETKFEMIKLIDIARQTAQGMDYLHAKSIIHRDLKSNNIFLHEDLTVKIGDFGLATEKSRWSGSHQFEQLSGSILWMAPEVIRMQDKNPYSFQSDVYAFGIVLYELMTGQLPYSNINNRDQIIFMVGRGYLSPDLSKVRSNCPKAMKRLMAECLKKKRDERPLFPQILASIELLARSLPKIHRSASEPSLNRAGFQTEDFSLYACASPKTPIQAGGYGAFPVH
T1 sequence (Q96SW2 whole entry): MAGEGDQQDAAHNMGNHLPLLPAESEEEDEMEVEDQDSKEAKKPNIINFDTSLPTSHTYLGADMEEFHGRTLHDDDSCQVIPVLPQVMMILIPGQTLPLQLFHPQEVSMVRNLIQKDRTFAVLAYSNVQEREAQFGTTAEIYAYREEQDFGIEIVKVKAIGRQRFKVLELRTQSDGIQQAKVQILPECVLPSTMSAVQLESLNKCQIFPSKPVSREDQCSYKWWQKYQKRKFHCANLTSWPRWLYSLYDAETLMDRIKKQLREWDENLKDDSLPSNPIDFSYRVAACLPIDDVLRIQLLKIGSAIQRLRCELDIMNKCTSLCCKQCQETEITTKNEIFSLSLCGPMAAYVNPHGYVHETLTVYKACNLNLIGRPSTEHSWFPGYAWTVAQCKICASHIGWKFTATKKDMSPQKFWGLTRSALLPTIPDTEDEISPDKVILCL
T1 sequence (Q16531 whole entry partner): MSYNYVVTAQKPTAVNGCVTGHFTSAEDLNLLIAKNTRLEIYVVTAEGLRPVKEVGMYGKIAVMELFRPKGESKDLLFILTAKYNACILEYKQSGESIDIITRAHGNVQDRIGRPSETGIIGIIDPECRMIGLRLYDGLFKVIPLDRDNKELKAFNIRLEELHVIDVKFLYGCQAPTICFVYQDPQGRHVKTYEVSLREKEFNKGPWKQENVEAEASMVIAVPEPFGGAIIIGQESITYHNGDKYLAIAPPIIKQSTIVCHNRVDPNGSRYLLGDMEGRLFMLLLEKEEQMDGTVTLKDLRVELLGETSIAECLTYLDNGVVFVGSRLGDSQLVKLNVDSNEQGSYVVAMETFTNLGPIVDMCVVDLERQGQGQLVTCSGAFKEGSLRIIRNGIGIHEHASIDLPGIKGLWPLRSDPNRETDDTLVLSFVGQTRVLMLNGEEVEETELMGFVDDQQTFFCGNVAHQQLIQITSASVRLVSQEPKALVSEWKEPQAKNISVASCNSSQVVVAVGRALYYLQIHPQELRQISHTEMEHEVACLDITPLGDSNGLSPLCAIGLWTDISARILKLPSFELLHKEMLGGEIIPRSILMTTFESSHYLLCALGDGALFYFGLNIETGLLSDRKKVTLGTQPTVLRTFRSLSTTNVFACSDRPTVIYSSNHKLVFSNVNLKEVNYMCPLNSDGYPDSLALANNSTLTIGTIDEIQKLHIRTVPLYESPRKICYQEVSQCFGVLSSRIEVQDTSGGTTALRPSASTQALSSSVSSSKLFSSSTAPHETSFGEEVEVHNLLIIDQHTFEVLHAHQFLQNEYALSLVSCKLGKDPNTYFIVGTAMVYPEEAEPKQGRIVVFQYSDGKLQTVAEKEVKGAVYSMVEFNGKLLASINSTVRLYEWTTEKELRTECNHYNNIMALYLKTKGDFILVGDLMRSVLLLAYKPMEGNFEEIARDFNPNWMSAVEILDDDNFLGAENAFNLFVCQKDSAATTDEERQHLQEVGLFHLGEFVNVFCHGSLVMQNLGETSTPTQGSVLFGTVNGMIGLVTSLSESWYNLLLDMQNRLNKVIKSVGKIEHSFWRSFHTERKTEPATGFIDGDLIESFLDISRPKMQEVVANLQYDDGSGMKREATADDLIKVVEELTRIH
In short: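 Endogenous HiBiT knock-in on BRAF V600E in A375 cells (clone A375.10); 11-point half-log series, top 10 μM, 2, 6 or 24 h at 37° C. Lytic HiBiT luminescence, background-subtracted, normalized to DMSO; 4-parameter fit gives DC50, Emax (residual protein) and IP (inflection point).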

[1] = A375.10 cells, BRAF V600E, 2 hours, inflection point, read-out: HiBiT-Degradation A375.10 BRAF 2 hours IP
[2] = A375.10 cells, BRAF V600E, 2 hours, read-out: HiBiT-Degradation A375.10 BRAF 2 hours DC50
[3] = A375.10 cells, BRAF V600E, 2 hours, read-out: HiBiT-Degradation A375.10 BRAF 2 hours Emax
[4] = read-out: HiBiT-Degradation A375.10 BRAF 2 hours DC50, A375.10 cells, BRAF V600E, 2 hours
[5] = read-out: HiBiT-Degradation A375.10 BRAF 2 hours IP, A375.10 cells, BRAF V600E, 2 hours, inflection point
[6] = read-out: HiBiT-Degradation A375.10 BRAF 2 hours Emax, A375.10 cells, BRAF V600E, 2 hours

| Structure (SMILES) | GI50 (A375-NRAS^Q61K cells) | DC50 (BRAF V600E; [1]) | DC50 (BRAF V600E; [2]) | Emax (BRAF V600E; [3]) | DC50 (BRAF V600E; [4]) | DC50 (BRAF V600E; [5]) | Emax (BRAF V600E; [6]) | Emax (A375-NRAS^Q61K cells) |
| --- | --- | --- | --- | --- | --- | --- | --- | --- |
| CCN(C)S(=O)(=O)Nc1ccc(F)c(Oc2ccc3ncn([C@H]4COC5(CCN(CC6CCN(c7cc8c(cc7F)c(N7CCC(=O)NC7=O)nn8C)CC6)CC5)C4)c(=O)c3c2)c1C#N [Compound 251, (3R)-3-[6-[2-cyano-3-[[ethyl(methyl)sulfamoyl]amino]-6-fluoro-phenoxy]-4-oxo-quinazolin-3-yl]-8-[[1-[3-(2,4-dioxohexahydropyrimidin-1-yl)-5-fluoro-1-methyl-indazol-6-yl]-4-piperidyl]methyl]-1-oxa-8-azaspiro[4.5]decane] | 1 to 10 µM | < 1 µM | < 1 µM | 50 to 90% |  |  |  | 50 to 90% |
| Cn1nc(N2CCC(=O)NC2=O)c2cc(F)c(N3CC4(CC(N5CCC6(CC5)C[C@@H](n5cnc7ccc(Oc8c(F)ccc(NS(=O)(=O)C9CCOCC9)c8C#N)cc7c5=O)CO6)C4)C3)cc21 [Compound 252, N-[2-cyano-3-[3-[(3R)-8-[2-[3-(2,4-dioxohexahydropyrimidin-1-yl)-5-fluoro-1-methyl-indazol-6-yl]-2-azaspiro[3.3]heptan-6-yl]-1-oxa-8-azaspiro[4.5]decan-3-yl]-4-oxo-quinazolin-6-yl]oxy-4-fluoro-phenyl]tetrahydropyran-4-sulfonamide] | > 10 µM | < 1 µM | > 10 µM | 50 to 90% |  |  |  | 50 to 90% |
| Cn1nc(N2CCC(=O)NC2=O)c2cc(F)c(N3CC4(CC(N5CCC6(CC5)CC(n5cnc7ccc(Oc8c(F)ccc(NS(=O)(=O)C9CCOCC9)c8C#N)cc7c5=O)C6)C4)C3)cc21 [Compound 263, N-[2-cyano-3-[3-[7-[2-[3-(2,4-dioxohexahydropyrimidin-1-yl)-5-fluoro-1-methyl-indazol-6-yl]-2-azaspiro[3.3]heptan-6-yl]-7-azaspiro[3.5]nonan-2-yl]-4-oxo-quinazolin-6-yl]oxy-4-fluoro-phenyl]tetrahydropyran-4-sulfonamide] | > 10 µM |  |  | < 50% | < 1 µM | < 1 µM |  | 50 to 90% |
| CCN(C)S(=O)(=O)Nc1ccc(F)c(Oc2ccc3ncn(C4CC5(CCN(C6CC7(CCN(c8cc9c(cc8F)c(N8CCC(=O)NC8=O)nn9C)CC7)C6)C5)C4)c(=O)c3c2)c1C#N (centres unmarked) [Compound 266, 6-[2-cyano-3-[[ethyl(methyl)sulfamoyl]amino]-6-fluoro-phenoxy]-3-[6-[7-[3-(2,4-dioxohexahydropyrimidin-1-yl)-5-fluoro-1-methyl-indazol-6-yl]-7-azaspiro[3.5]nonan-2-yl]-6-azaspiro[3.4]octan-2-yl]-4-oxo-quinazoline] | > 10 µM | < 1 µM | < 1 µM | 50 to 90% |  |  |  | 50 to 90% |
| Cn1nc(N2CCC(=O)NC2=O)c2cc(F)c(C3CCC(N4CCC5(CC4)CC(c4cnc6ccc(Oc7c(F)ccc(NS(=O)(=O)N8CC[C@@H](F)C8)c7C#N)cc6n4)C5)CC3)cc21 (stereo partly drawn) [Compound 267, (3R)-N-[2-cyano-3-[3-[7-[4-[3-(2,4-dioxohexahydropyrimidin-1-yl)-5-fluoro-1-methyl-indazol-6-yl]cyclohexyl]-7-azaspiro[3.5]nonan-2-yl]quinoxalin-6-yl]oxy-4-fluoro-phenyl]-3-fluoro-pyrrolidine-1-sulfonamide] | < 1 µM | < 1 µM | < 1 µM |  |  |  | < 50% | < 50% |
| CO[C@H]1CCN(S(=O)(=O)Nc2ccc(F)c(Oc3ccc4ncn(C5CC6(CCN(C7CC8(C7)CN(c7cc9c(cc7F)c(N7CCC(=O)NC7=O)nn9C)C8)CC6)C5)c(=O)c4c3)c2C#N)C1 (stereo partly drawn) [Compound 272, (3S)-N-[2-cyano-3-[3-[7-[2-[3-(2,4-dioxohexahydropyrimidin-1-yl)-5-fluoro-1-methyl-indazol-6-yl]-2-azaspiro[3.3]heptan-6-yl]-7-azaspiro[3.5]nonan-2-yl]-4-oxo-quinazolin-6-yl]oxy-4-fluoro-phenyl]-3-methoxy-pyrrolidine-1-sulfonamide] | > 10 µM |  |  |  | < 1 µM | < 1 µM | < 50% | 50 to 90% |

Second part, led by results:

| GI50 (A375-NRAS^Q61K cells) | DC50 (BRAF V600E; [1]) | DC50 (BRAF V600E; [2]) | Emax (BRAF V600E; [3]) | DC50 (BRAF V600E; [4]) | DC50 (BRAF V600E; [5]) | Emax (BRAF V600E; [6]) | Structure (SMILES) | Emax (A375-NRAS^Q61K cells) |
| --- | --- | --- | --- | --- | --- | --- | --- | --- |
| 1 to 10 µM | < 1 µM | > 10 µM | 50 to 90% |  |  |  | CCN(C)S(=O)(=O)Nc1ccc(F)c(Oc2ccc3ncn(C4CC5(CCN(C6CCN(c7cc8c(cc7F)c(N7CCC(=O)NC7=O)nn8C)CC6(F)F)CC5)C4)c(=O)c3c2)c1C#N (centres unmarked) [Compound 253, 6-[2-cyano-3-[[ethyl(methyl)sulfamoyl]amino]-6-fluoro-phenoxy]-3-[7-[1-[3-(2,4-dioxohexahydropyrimidin-1-yl)-5-fluoro-1-methyl-indazol-6-yl]-3,3-difluoro-4-piperidyl]-7-azaspiro[3.5]nonan-2-yl]-4-oxo-quinazoline] | < 50% |
| > 10 µM | < 1 µM | < 1 µM | 50 to 90% |  |  |  | CCN(C)S(=O)(=O)Nc1ccc(F)c(Oc2ccc3ncn(C4CC5(CCN(CC6CCN(c7cc8c(cc7F)c(N7CCC(=O)NC7=O)nn8C)CC6)CC5)C4)c(=O)c3c2)c1C#N [Compound 255, 6-[2-cyano-3-[[ethyl(methyl)sulfamoyl]amino]-6-fluoro-phenoxy]-3-[7-[[1-[3-(2,4-dioxohexahydropyrimidin-1-yl)-5-fluoro-1-methyl-indazol-6-yl]-4-piperidyl]methyl]-7-azaspiro[3.5]nonan-2-yl]-4-oxo-quinazoline] | 50 to 90% |
| < 1 µM | < 1 µM | < 1 µM | < 50% |  |  |  | CCN(C)S(=O)(=O)Nc1ccc(F)c(Oc2ccc3ncc(C4CC5(CCN(C6CCN(c7cc8c(cc7F)c(N7CCC(=O)NC7=O)nn8C)CC6)CC5)C4)nc3c2)c1C#N [Compound 256, 7-[2-cyano-3-[[ethyl(methyl)sulfamoyl]amino]-6-fluoro-phenoxy]-2-[7-[1-[3-(2,4-dioxohexahydropyrimidin-1-yl)-5-fluoro-1-methyl-indazol-6-yl]-4-piperidyl]-7-azaspiro[3.5]nonan-2-yl]quinoxaline] | 50 to 90% |
| > 10 µM | < 1 µM | 1 to 10 µM | 50 to 90% |  |  |  | CCN(C)S(=O)(=O)Nc1ccc(F)c(Oc2ccc3ncn(CC4CCN(C5CC6(C5)CN(c5cc7c(cc5F)c(N5CCC(=O)NC5=O)nn7C)C6)CC4)c(=O)c3c2)c1C#N [Compound 258, 6-[2-cyano-3-[[ethyl(methyl)sulfamoyl]amino]-6-fluoro-phenoxy]-3-[[1-[2-[3-(2,4-dioxohexahydropyrimidin-1-yl)-5-fluoro-1-methyl-indazol-6-yl]-2-azaspiro[3.3]heptan-6-yl]-4-piperidyl]methyl]-4-oxo-quinazoline] | 50 to 90% |
| < 1 µM | < 1 µM | < 1 µM | < 50% |  |  |  | Cn1nc(N2CCC(=O)NC2=O)c2cc(F)c(N3CC4(CC(N5CCC6(CC5)CC(n5cnc7ccc(Oc8c(F)ccc(NS(=O)(=O)N9CCOCC9)c8C#N)cc7c5=O)C6)C4)C3)cc21 [Compound 262, N-[2-cyano-3-[3-[7-[2-[3-(2,4-dioxohexahydropyrimidin-1-yl)-5-fluoro-1-methyl-indazol-6-yl]-2-azaspiro[3.3]heptan-6-yl]-7-azaspiro[3.5]nonan-2-yl]-4-oxo-quinazolin-6-yl]oxy-4-fluoro-phenyl]morpholine-4-sulfonamide] | 50 to 90% |
| 1 to 10 µM | < 1 µM | < 1 µM | < 50% |  |  |  | CCN(C)S(=O)(=O)Nc1ccc(F)c(Oc2ccc3ncn(CC4CCN(C5CCN(c6cc7c(cc6F)c(N6CCC(=O)NC6=O)nn7C)CC5)CC4)c(=O)c3c2)c1C#N [Compound 264, 6-[2-cyano-3-[[ethyl(methyl)sulfamoyl]amino]-6-fluoro-phenoxy]-3-[[1-[1-[3-(2,4-dioxohexahydropyrimidin-1-yl)-5-fluoro-1-methyl-indazol-6-yl]-4-piperidyl]-4-piperidyl]methyl]-4-oxo-quinazoline] | 50 to 90% |
| < 1 µM |  |  | < 50% | < 1 µM | < 1 µM |  | Cn1nc(N2CCC(=O)NC2=O)c2cc(F)c(N3CC4(CC(N5CCC6(CC5)CC(c5cnc7ccc(Oc8c(F)ccc(NS(=O)(=O)N9CC[C@@H](F)C9)c8C#N)cc7n5)C6)C4)C3)cc21 [Compound 265, (3R)-N-[2-cyano-3-[3-[7-[2-[3-(2,4-dioxohexahydropyrimidin-1-yl)-5-fluoro-1-methyl-indazol-6-yl]-2-azaspiro [3.3]heptan-6-yl]-7-azaspiro [3.5]nonan-2-yl]quinoxalin-6-yl]oxy-4-fluoro-phenyl]-3-fluoro-pyrrolidine-1-sulfonamide] | < 50% |
